Results on 40 molecules are retold here after PubChem BioAssay (NCI).

Molecules are shown by their SMILES. Where “and” joins values, the source holds several entries; their conditions need not be identical. Identical values can stand only once.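 Cultured in 96-well plates, cells were exposed to test compound for 48 hours across five concentrations. GI50 marks 50% less growth. At the TGI there is no net growth.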 Bounds are passed on as bounds.

This test concerns MDA-MB-468 breast. Briefly: growth of human tumour cells (NCI), 48 h.
Regarding `Oc1ccc(CN2CCC(N3CCCCC3)CC2)c2cccnc12`, the GI50 is 25200 nM and the TGI amounted to 73900 nM.
On to `COc1cc(C2=NOC(c3cc(OC)c(OC)c(OC)c3)C2)ccc1OCCCCOc1cc2c(cc1OC)C(=O)N1CCC[C@H]1C=N2` (stereo not given in full), for which the GI50 is 225 nM and the TGI amounted to 593 nM.
For the molecule `Oc1c(CN2CCC(N3CCCCC3)CC2)cc(Cc2cc(CN3CCC(N4CCCCC4)CC3)c(O)c3ncccc23)c2cccnc12`, the GI50 was 1150 nM and the TGI stood at 2880 nM.
On to `C=CC(=O)N1CC2(CCN(c3nc(OC4CCN(CCCOC)CC4)nc4c(OCC(F)(F)F)c(-c5c(C)ccc6[nH]ncc56)c(C5CC5)cc34)CC2)C1`, for which the GI50 was 1590 nM and the TGI was 3290 nM.
As to `COc1ccc(-c2cnnc3c(-c4cccc(C(F)(F)F)c4)cnn23)cc1`, the GI50 was 5390 nM and the TGI is over 100000 nM.
Turning to `O=C1Nc2c(C(F)(F)F)cccc2[C@]1(c1ccc(O)cc1)c1ccc(OC(F)(F)F)cc1`, the GI50 is 6480 nM and the TGI was determined as 21400 nM.
Take `CCN(CC)CCOc1ccc(/C(=C(\Cl)c2ccccc2)c2ccccc2)cc1`: the GI50 is 1360 nM and 1570 nM; the TGI was 5970 nM and 3050 nM.
Regarding `NC(=O)c1ccc(I)c(N)c1`, the GI50 is over 100000 nM and the TGI is over 100000 nM.
Consider `N#Cc1c(-c2ccc(F)cc2)nc(N/N=C/c2c[nH]c3ccccc23)nc1N1CCOCC1`, for which the GI50 is 3460 nM and the TGI was 22700 nM.
For `FC(F)(F)c1cccc(Nc2nccc(-c3cnn4nc(-c5ccccc5)ccc34)n2)c1`, the GI50 is 7420 nM and the TGI was over 23500 nM.
`COc1cc(C2NC(=O)c3ccccc3N2)ccc1OCCCCCOc1c(OC)cc(C2=NOC(c3cc(OC)c(OC)c(OC)c3)C2)cc1OC` (stereo not given): the GI50 is 80.5 nM and the TGI came to 97300 nM.
With `C=CCCCCCCCCC(=O)[O][Sn]([CH2]CCC)([CH2]CCC)[CH2]CCC`, the GI50 is 135 nM and the TGI was 278 nM.
Regarding `O=C1CCCCN1CCCCC#Cc1ccccc1C#Cc1ccc([N+](=O)[O-])cc1`, the GI50 is 4580 nM and the TGI was found to be 26100 nM.
Take `CS(=O)(=O)Nc1cc(-c2ccc3ncc(C#N)c(NCc4cccc(F)c4)c3c2)cnc1Cl`: the GI50 was 102 nM and the TGI is 926 nM.
For `C=C1C(=O)O[C@H]2[C@H]1CC/C(Cn1cc(-c3ccc(OC)cc3)nn1)=C\CC[C@@]1(C)O[C@@H]21`, the GI50 is 892 nM and the TGI turned out to be 2560 nM.
In the case of `N#Cc1ccc(O)c(C2=NCC(c3cccc(Oc4ccccc4)c3)O2)c1` (stereo not given), the GI50 is 841 nM and the TGI amounted to 7070 nM.
For `Oc1ccc2ccccc2c1N=Nc1nccs1`, the GI50 was 1640 nM and the TGI is 6160 nM.
For `CC[C@@H]1C(=O)N(C)c2cnc(Nc3ccc(C(=O)NC4CCN(C)CC4)cc3OC)nc2N1C1CCCC1`, the GI50 was 1.35 nM and < 10 nM; the TGI is 16.4 nM and < 18.3 nM.
Regarding `CN1CCN(C(=O)OCc2nc3c(N4CCOCC4)nc(Cl)nc3n2C)CC1`, the GI50 is 923 nM and the TGI is 2330 nM.
Consider `CC[C@]1(O)C[C@@H]2CN(CCc3c([nH]c4ccccc34)[C@@](C(=O)OC)(c3cc4c(cc3OC)N(C)[C@H]3[C@@](O)(C(=O)OC)[C@H](OC(C)=O)[C@]5(CC)C=CCN6CC[C@]43[C@@H]65)C2)C1`, for which the GI50 is under 10 nM and the TGI was under 10 nM.
On to `CCN(CC)c1ccc(/C=C/c2ccc3cc(C)ccc3[n+]2CC)cc1`, for which the GI50 was 20.5 nM and the TGI was 464 nM.
As for `O=c1[nH]ncc(Br)c1Br`, the GI50 was 1270 nM and the TGI came to 3210 nM.
As for `Cc1ccc(NC(=O)c2cccc(N(C)C)c2)cc1NC(=O)c1ccc(O)cc1`, the GI50 was over 57200 nM and the TGI was over 100000 nM.
For `O=C(N/N=C/c1ccccc1O)c1ccccc1Nc1ccnc(C(F)(F)F)c1` the same measures were 272 nM and 9140 nM.
With `C[C@@H]1OC(O)[C@@H](F)[C@H](O)[C@@H]1O` (stereo not given in full), the GI50 was over 100000 nM and the TGI was over 100000 nM.
`O=C(/C(Br)=C/c1ccccc1)c1ccccc1`: the GI50 is 1120 nM and the TGI was determined as 2560 nM.
Consider `CC1=CC(=Nc2ccc(N(CCCl)CCCl)cc2)C=C(C)C1=O`, for which the GI50 was 191 nM and the TGI amounted to 822 nM.
In the same order, the values of `CCCn1cnc2c(SCc3ccccc3Cl)nc(N)nc21` are 13400 nM and 48400 nM.
As to `CC(C)(C)OC(=O)N1CCc2c(sc3ncnc(N/N=C/c4cccc5ccccc45)c23)C1`, the GI50 is 4210 nM and the TGI came out at 28100 nM.
For the molecule `Oc1ccc(NCc2nc3ccccc3[nH]2)cc1`, the GI50 was 88400 nM and the TGI is over 100000 nM.
For `CC/C(=C(/c1ccc(O)cc1)c1ccc(OCCNC)cc1)c1ccccc1` the same measures were 1420 nM and 2960 nM.
As to `C=C1C(=O)O[C@H]2[C@H]1CC/C(COC(=O)c1ccc3ccccc3c1)=C\CC[C@@]1(C)O[C@@H]21`, the GI50 is 784 nM and the TGI came out at 2610 nM.
Take `CC1(C)OC2[C@@H](CNC(=O)NC(=O)NC(=O)CI)O[C@@H](n3cnc4c(NC(=O)Nc5ccccc5)ncnc43)[C@H]2O1` (stereo not given in full): the GI50 is 6780 nM and the TGI came out at 14800 nM.
In the same order, the values of `CC(=O)OC[C@]1(C)C=C2C(=O)[C@](C)(O)C3(CC3)C(C)=C2[C@H]1O` are 44.7 nM and 196 nM.
For `O=C1c2cc(Cl)ccc2S(=O)(=O)c2c(NCCCNCCO)nc3ccccc3c21` the same measures were 1060 nM and 2950 nM.
Turning to `COC(=O)[C@]12CC[C@@H](C)[C@H](C)[C@@H]1C1=CC[C@@H]3[C@@]4(C)C/C(=N\O)[C@H](O)[C@@]5(C)COC(=C45)C[C@@]3(C)[C@]1(C)CC2`, the GI50 is 6220 nM and the TGI was 20600 nM.
For `COc1cc2c(c(O)c1Br)C(=O)c1c(O)cc(C[C@H](C)O)cc1[C@H]2[C@H]1c2cc(C[C@H](C)O)cc(O)c2C(=O)c2c1cc(OC)c(Br)c2O`, the GI50 is 13300 nM and 16500 nM; the TGI is 36000 nM and 41900 nM.
Take `OCc1c[nH]c2ccccc12`: the GI50 is 25100 nM and the TGI was 75000 nM.
`N#CSc1c[nH]c2cccc(/C=C/C(=O)/C=C(/C=C/c3cccc4[nH]cc(SC#N)c34)OB(F)F)c12`: the GI50 is 300 nM and the TGI turned out to be 1190 nM.
On to `CCOc1cc2c(Cl)ncnc2c(OCC)c1OCC`, for which the GI50 is 781 nM and the TGI was found to be 3560 nM.
